Test results as given in patent US20240239757A1, “PHTHALAZINONE DERIVATES AS NLRP3 INFLAMMASOME INHIBITORS” (JANSSEN PHARMACEUTICA NV, priority 2021, published 2024).

Legend:
IL-1β = test: PBMC assay, IL-1β; assay type: cell-based; conditions: human PBMCs, 30 min with compound, then 100 ng/ml LPS for 6 hrs, supernatant analysed via MSD technology, read-out: IL1β IC50
Protocol: The activity of a compound according to the present invention can be assessed by in vitro methods.
(§1) Peripheral venous blood was collected from healthy individuals and human peripheral blood mononuclear cells (PBMCs) were isolated from blood by Ficoll-Histopaque (Sigma-Aldrich, A0561) density gradient centrifugation. After isolation, PBMCs were stored in liquid nitrogen for later use. Upon thawing, PBMC cell viability was determined in growth medium (RPMI media supplemented with 10% fetal bovine serum, 1% Pen-Strep and 1% L-glutamine). Compounds were spotted in a 1:3 serial dilution in DMSO and diluted to the final concentration in 30 μl medium in 96 well plates (Falcon, 353072). PBMCs were added at a density of 7.5×10^4 cells per well and incubated for 30 min in a 5% CO2 incubator at 37° C. LPS stimulation was performed by addition of 100 ng/ml LPS (final concentration, Invivogen, tlrl-smlps) for 6 hrs followed by collection of cellular supernatant and the analysis of IL-1β (μM) and TNF cytokines levels (μM) via MSD technology according to manufacturers' guidelines (MSD, K151A0H).
(§2) The IC50 values (for IL-1β) and EC50 values (TNF) were obtained on compounds of formula (I)/examples, and are depicted in the following table: […]

TNF = test: PBMC assay, TNF; assay type: cell-based; conditions: human PBMCs, 30 min with compound, then 100 ng/ml LPS for 6 hrs, supernatant analysed via MSD technology
Protocol: as §1, §2

| IC50 (IL-1β) | EC50 (TNF) | melting point | SMILES |
| --- | --- | --- | --- |
| 80 nM | > 10 µM | – | CN(C)c1nn(CC(=O)Nc2ccc3nncn3c2)c(=O)c2ccc(C(F)(F)F)cc12 [Compound 1H, N-([1,2,4]triazolo[4,3-a]pyridin-6-yl)-2-(4-(dimethylamino)-1-oxo-6-(trifluoromethyl)phthalazin-2(1H)-yl)acetamide] |
| 170 nM | > 10 µM | 238.3 °C | CN(C)c1nn(CC(=O)Nc2ccncn2)c(=O)c2ccc(C(F)(F)F)cc12 [Compound 1I] |
| 70 nM | > 10 µM | 184.8 °C | CN(C)c1nn(CC(=O)N[C@H]2C[C@@](C)(O)C2)c(=O)c2ccc(C(F)(F)F)cc12 [Compound 1J] |
| 360 nM | > 10 µM | 241.8 °C | CN(C)c1nn(CC(=O)Nc2ccc(=O)n(C)n2)c(=O)c2ccc(C(F)(F)F)cc12 [Compound 1K] |
| 70 nM | > 10 µM | – | CN(C)c1nn(CC(=O)Nc2ccc3nncn3n2)c(=O)c2ccc(C(F)(F)F)cc12 [Compound 2A, N-([1,2,4]triazolo[4,3-b]pyridazin-6-yl)-2-(4-(dimethylamino)-1-oxo-6-(trifluoromethyl)phthalazin-2(1H)-yl)acetamide] |
| > 10000 nM | > 10 µM | – | O=C(Cn1nc(N2CC(F)(F)C2)c2cc(C(F)(F)F)ccc2c1=O)Nc1ccc2nncn2c1 [Compound 3C] |
| 3320 nM | > 10 µM | 288.6 °C | O=C(Cn1nc(N2CC(F)(F)C2)c2cc(C(F)(F)F)ccc2c1=O)Nc1ccncn1 [Compound 3D] |
| 9610 nM | > 10 µM | 221.6 °C | O=C(Cn1nc(N2CC(F)(F)C2)c2cc(C(F)(F)F)ccc2c1=O)Nc1ccnnc1 [Compound 3E] |
| 3090 nM | > 10 µM | 213.3 °C | C[C@]1(O)C[C@@H](NC(=O)Cn2nc(N3CC(F)(F)C3)c3cc(C(F)(F)F)ccc3c2=O)C1 [Compound 3F] |
| > 10000 nM | > 10 µM | 220 °C | CC(C)n1ccc(NC(=O)Cn2nc(N3CC(F)(F)C3)c3cc(C(F)(F)F)ccc3c2=O)n1 [Compound 3G] |
| 4290 nM | > 10 µM | 286.8 °C | O=C(Cn1nc(N2CC(F)(F)C2)c2cc(Br)ccc2c1=O)Nc1ccncn1 [Compound 4G] |
| 30 nM | > 10 µM | 193.2 °C | CN(C)c1nn(CC(=O)N[C@H]2C[C@@](C)(O)C2)c(=O)c2ccc(Br)cc12 [Compound 5C] |
| 50 nM | > 10 µM | > 300 °C | CN(C)c1nn(CC(=O)Nc2ccc3nncn3c2)c(=O)c2ccc(Br)cc12 [Compound 5D] |
| 170 nM | > 10 µM | 246.8 °C | CN(C)c1nn(CC(=O)Nc2ccc(=O)n(C)n2)c(=O)c2ccc(Br)cc12 [Compound 5E] |
| > 10000 nM | > 10 µM | – | CN(C)CCN(C)c1nn(CC(=O)Nc2ccc3nncn3c2)c(=O)c2ccc(C(F)(F)F)cc12 [Compound 6C] |
| 5630 nM | > 10 µM | – | COCCN(C)c1nn(CC(=O)Nc2ccc3nncn3c2)c(=O)c2ccc(C(F)(F)F)cc12 [Compound 7C] |
| 120 nM | > 10 µM | 184.8 °C | CN(C)c1nn(CC(=O)N[C@H]2C[C@@](C)(O)C2)c(=O)c2ccc(Cl)cc12 [Compound 8H] |
| 310 nM | > 10 µM | 295.3 °C | CN(C)c1nn(CC(=O)Nc2ccc3nncn3c2)c(=O)c2ccc(Cl)cc12 [Compound 8I] |
| 840 nM | > 10 µM | 253.4 °C | CN(C)c1nn(CC(=O)Nc2ccc(=O)n(C)n2)c(=O)c2ccc(Cl)cc12 [Compound 8J] |
| > 10000 nM | > 10 µM | 173.1 °C | CN(C)c1nn(CC(=O)N[C@H]2C[C@@](C)(O)C2)c(=O)c2cc(Cl)ccc12 [Compound 9H] |
| > 10000 nM | > 10 µM | 213.2 °C | CN(C)c1nn(CC(=O)Nc2ccc(=O)n(C)n2)c(=O)c2cc(Cl)ccc12 [Compound 9I] |
| > 10000 nM | > 10 µM | > 300 °C | CN(C)c1nn(CC(=O)Nc2ccc3nncn3c2)c(=O)c2cc(Cl)ccc12 [Compound 9J] |
| 130 nM | > 10 µM | 270.3 °C | CN(C)c1nn(CC(=O)Nc2ccc3nncn3n2)c(=O)c2ccc(Cl)cc12 [Compound 10A] |
| 50 nM | > 10 µM | 231.6 °C | CN(C)c1nn(CC(=O)Nc2ccc3nncn3n2)c(=O)c2ccc(Br)cc12 [Compound 11A] |
